Patent US20110256121A1, “METHODS AND KITS FOR DIAGNOSING OR MONITORING AUTOIMMUNE AND CHRONIC INFLAMMATORY DISEASES” (THE REGENTS OF THE UNIVERSITY OF MICHIGAN, priority 2008, published 2011)

Tests used:
Format in all cases: cell-based, human
[1] = system: KIR; test: KIR expression on 5-azaC treated T cells, anti-KIR antibody cocktail, flow cytometry
Source text: Antibodies: Unconjugated and PE-conjugated anti-CD158d (KIR2DL4) were purchased from R&D Systems, Minneapolis, Minn. and unconjugated and PE-conjugated anti-NKB1 (KIR3DL1), anti-perforin antibodies and isotype matched control antibodies were obtained from BD PharMingen, San Diego Calif. PE-conjugated anti-CD158i (KIR2DS4) was obtained from Beckman Coulter (Fullerton Calif.). Anti-CD4-Cy5, anti-CD8-FITC, and PE-conjugated antibodies to and KIR2DS2 (anti-CD158b) were obtained from BD PharMingen, KIR2DL1/2DS2 (CD158a/h) and KIR3DL1/3DS1 (CD158e1/e2) from Beckman Coulter, and 2DL1/2DL3/2DS2 (anti-CD158 b1/b2/j (GL183) was purchased from R&D Systems. Minneapolis, Minn.). Ten microliters of each PE-conjugated anti-KIR antibody were mixed to form a “cocktail” used to stain the cells. […] Following staining, the cells were fixed in 1% paraformaldehyde and kept at 4° C. until analyzed. […]
CD4+ and CD8+ T cells demethylate and express KIR genes following treatment with the DNA methylation inhibitor 5-azaC. PBMC from 11 healthy subjects were stimulated with PHA, treated with 5-azaC, then KIR expression was measured on untreated and treated CD4+ and CD8+ cells using a “cocktail” of anti-KIR antibodies and flow cytometry as described in Materials and Methods above.

[2] = system: KIR2DL4; test: KIR2DL4 transcripts by real-time quantitative RT-PCR; conditions: relative to β-actin, p<0.001 for both
Protocol: (§1) T cell purification and culture. Peripheral blood mononuclear cells (PBMC) were isolated from healthy donors by density gradient centrifugation, stimulated for 18 hours with 1 μg/mlphytohemagglutinin (PHA) (Murex, Norcross, Ga.), then treated or not with 5 μm 5-azacytidine (5-azaC, Sigma, St. Louis, Mo.) for 72 hours as described (6). Total T cells, CD4^+ T cells or CD8′ T cells then were purified using the pan T cell isolation kit II or the CD4^+ and CD8^+ T cell isolation kit II from Miltenyi (Auburn, Calif.). T cells were typically >94% CD3^+ by flow cytometry. Jurkat cells (E6-1) were maintained in culture as described (11). This protocol was approved by the University of Michigan Institutional Review Board.
Real-time quantitative RT-PCR. Total RNA was isolated using the RNeasy Mini Kit (QIAGEN, Valencia, Calif.). Primers were designed to match polymorphic positions unique to KIR2DL2 or KIR2DL4 genes as described by Uhrberg et al. (13). Controls included β-actin primers as described (14). Real-time quantitative RT-PCR was performed with a Rotor-Gene 3000 (Corbett Robotics, San Francisco, Calif.) and QuantiTect SYBR Green RT-PCR kit (QIAGEN) according to manufacturer's instructions. cDNA synthesized from T cells was used to generate standard curves for β-actin, KIR2DL2 and KIR2DL4, and each experiment was repeated at least twice.

[3] = system: KIR2DL2; test: KIR2DL2 expression on T cells by flow cytometry
Protocol: as §1
Flow Cytometric Analysis. The following monoclonal antibodies were used: CYC-anti-CD3, FITC-anti-CD8, CYC-anti-CD4, FITC-anti-CD28, CYC-mouse IgG1 and FITC-mouse-IgG1 (all from BD PharMingen, San Diego, Calif.). Anti-CD158b1/b2, j-PE (GL183, reactive with KIR 2DL2/2DL3/2DS2) was obtained from Beckman Coulter Immunotech (Buckinghamshire, UK), anti-CD158d-PE (anti-KIR2DL4) from R&D Systems (Minneapolis, Minn.), and PE-mouse-IgG2A from Abcam (Cambridge Mass.). Cell staining and fixation were performed as described (2; 6), and cells analyzed using a FACSCalibur flow cytometer (BD Biosciences, Franklin Lakes, N.J.).
Confirmation at the protein and mRNA levels. The effect of 5-azaC on KIR2DL2 and KIR2DL4 was confirmed in CD4+ and CD8+ T cells at the protein and mRNA levels. […] 5-azaC induces KIR2DL2 expression on both subsets, but a greater increase is seen on the CD8+ subset. FIG. 25b summarizes the effect of 5-azaC on KIR2DL2 expression in CD4+ and CD8+ T cells from healthy subjects. […] Since KIR is primarily expressed on CD28− T cells (24), KIR2DL2 expression was compared on CD28+ and CD28− T cells with and without 5-azaC treatment. KIR2DL2 expression increased on the CD28+ subset relative to untreated cells (1.9±0.2% vs 0.1±0.1%, 5-azaC treated vs untreated, n=3, p<0.001), but not on the CD28− subset (0.27±0.13% vs 0.30±0.18%, treated vs untreated, n=3).

With `Nc1ncn([C@@H]2O[C@H](CO)[C@@H](O)[C@H]2O)c(=O)n1` [5-azaC, 5-azacytidine] the “expression of additional KIR proteins on T cells” value [1] was “induced expression of additional KIR proteins including KIR3DL1, KIR2DS4 and KIR2DL2/2DL3”, the “KIR expression on CD4+ and CD8+ T cells” value ([1]; 11 healthy subjects, PHA, anti-KIR cocktail) was “significantly increases KIR expression” and the “KIR2DL4 mRNA in CD4+ and CD8+ T cells” value [2] was “increase is significant on both subsets”. The “KIR2DL2 expression on CD4+ and CD8+ T cells” value ([3]; 5-azaC 72 h, p<0.001 for each subset) was “increases KIR2DL2 expression on both”, the “CD4 or CD8 expression” value ([3]; 5-azaC treated T cells) was “no significant effect” and the “KIR2DL2 expression on the CD28+ subset” value ([3]; 5-azaC treated, untreated 0.1±0.1%, n=3, p<0.001) was 1.9±0.2%. For the same compound, the “KIR2DL2 expression on the CD28− subset” value ([3]; 5-azaC treated, untreated 0.30±0.18%, n=3) was 0.27±0.13%.
